Assay results published in patent US20250375456A1, “AGENT FOR PREVENTING OR TREATING RESPIRATORY DISEASE” (Nippon Chemiphar Co., Ltd., priority 2021, published 2025).

How the values were obtained:
Format in all cases: in vivo, guinea pig
[1] = Measurement of weights in cigarette smoke-exposed model; details: Day 1 to Day 26; Compound A 3, 10, 30 mg/kg, gefapixant 10 mg/kg, oral once a day
Excerpt: (§1) Male Hartley guinea pigs (manufactured by Japan SLC, Inc., Slc: Hartley, SPF) were used in the test. The guinea pigs were purchased at 5 weeks old. The weights at the time of the purchase were about 300 to 350 g. After arrival, the guinea pigs were provided with an acclimation period of 9 days, including the day of receipt. During the above period, the clinical symptoms of the animals were observed once a day. In addition, on the last day of the acclimation period, the animals were weighed and the health status was measured. It was confirmed that there were no abnormal clinical signs or […] in any of the animals. Body weights on the last day of the acclimation (that is, at the beginning of exposure to cigarette smoke) were about 390 to 450 g.
Experimental animals were prepared with reference to Non Patent Literature 2. Specifically, guinea pigs exposed to cigarette smoke using a smoking exposure system (INH06-CIG01A, INH06-CIG02, M.I.P.S. Inc.) were used in the experiment. […]
The placebo and each drug were administered by forced oral administration into the stomach using a disposable syringe equipped with a gastric catheter. […] The actual amount of each drug administered to each guinea pig was calculated based on the most recent weight.
The weights were measured with an electronic balance (MSA4202S, Sartorius Japan K.K.) before the research operation on Days 1, 8, 15, 22, and 26.

[2] = test system: cigarette smoke-exposed guinea pigs; test: Measurement of respiratory function (double flow plethysmography) in cigarette smoke-exposed model
Excerpt: as §1
(§2) Experimental animals were prepared with reference to Non Patent Literature 2. Specifically, guinea pigs exposed to cigarette smoke using a smoking exposure system (INH06-CIG01A, INH06-CIG02, M.I.P.S. Inc.) were used in the experiment. Each guinea pig was placed in an exposure holder (one per cage), and the holder was secured in the exposure chamber. The animals were exposed to the smoke of 30 cigarette per day, 5 days a week, for 4 weeks, the smoke being generated by a mainstream smoke generator. In the fourth week, the exposure was for 4 days (smoking period was from […]). As for the cigarettes, Peace (no filter, tar: 28 mg, nicotine: 2.3 mg, Japan Tobacco Inc., Peace is a registered trademark of Japan Tobacco Inc.) was used.
Unless otherwise specified, various evaluations were performed on the day after the last cigarette smoke-exposure in the second week (Day 13) and the day after the last cigarette smoke-exposure (Day 26).
The solvent of Compound A was used as the placebo of the control group.
(§3) The placebo and each drug were administered by forced oral administration into the stomach using a disposable syringe equipped with a gastric catheter. As for the administration frequency, repetitive administration was performed once a day for 25 days from Day 1 to Day 25. The administration time was 1 hour (±5 minutes) before the cigarette smoke-exposure. The dose was 5 mL/kg. The actual amount of each drug administered to each guinea pig was calculated based on the most recent weight.
Respiratory function in conscious guinea pigs was measured by double flow plethysmography using a respiratory function measurement system (Pulmos-I, M.I.P.S Inc.). The measurement parameters were specific airway resistance (sRaw), tidal volume (TV), respiratory rate (RR), minute volume (MV), and peak expiratory flow (PEF). The average value of the measurement values obtained with 100 breaths was considered as the measurement value for each measurement day.

[3] = test system: cigarette smoke-exposed guinea pigs; test: Measurement of citric acid-induced cough reflex in cigarette smoke-exposed model; details: for mean number of cough reflexes: Day 20 or 21, 2 hours after administration, 0.1 mol/L citric acid, 15 minutes
Excerpt: as §1, §2, §3
Measurements were performed 1 day or 2 days after the last cigarette smoke exposure during Week 3 (Day 20 or Day 21).
The measurements were performed 2 hours after the administration of the placebo or various drugs.
The guinea pigs were placed in the inhalation chamber of the respiratory function measurement system (Pulmos-I, M.I.P.S. Co.). Cough reflex was induced by inhaling citric acid (lot no. M8K7523, manufactured by NACALAI TESQUE, INC.) for 3 minutes from the front side of the chamber using an ultrasonic nebulizer. […] The presence or absence of a cough reflex was determined from the sound during the cough reflex, the movement of the animal, and the respiratory function. Before the measurement on the day of the administration, the animals were placed in the chamber for 15 minutes or longer to acclimatize to the experimental environment. Note that the respiratory function (respiratory rate (RR), tidal volume (TV), peak expiratory flow (PEF), and minute volume (MV)) was measured immediately before the citric acid inhalation. The respiratory function was measured by the body side sensor of the respiratory function measurement system.

[4] = test system: cigarette smoke-exposed guinea pigs; test: Number of cells in bronchoalveolar lavage fluid (BALF) in cigarette smoke-exposed model
Excerpt: as §1, §2, §3
The measurement was performed after the day after the last cigarette smoke exposure (Day 26).
After sacrificing the guinea pigs by bleeding under anesthesia, bronchoalveolar lavage fluid (BALF) was collected according to the following operating procedure.
(1) After ligating the left main bronchus with a thread, a cannula was inserted into the trachea and fixed.
(2) 5 mL of saline was injected into the right lung through the cannula, and the lavage fluid was collected by gentle suctioning. BALF was collected by repeating this procedure twice (a total of 10 mL).
The pellet was suspended in 1 mL of saline, and the number of WBCs were counted using an automated hematology analyzer with a BALF analysis area (XT-2000iV, Sysmex Corporation). The counting was performed by adjusting the smear preparation. The smear preparation was performed by centrifuging the cell suspension again and suspending the obtained pellet in 75% FBS (fetal bovine serum and saline). After drying, the smear preparation was Wright-Giemsa stained.
The percentages of neutrophils, macrophages, eosinophil, and lymphocytes with respect to total WBCs were obtained, and the numbers of the cells per 1 μL were calculated.

[5] = Day 13, 10 mg/kg oral once a day
[6] = Day 26, 10 mg/kg oral once a day
[7] = Day 26, high-dose group 30 mg/kg oral
[8] = Day 26, low-dose group 3 mg/kg oral
[9] = Day 26, medium-dose group 10 mg/kg oral

O=C1CC(=O)N(c2ccc(NC(=O)c3ccccc3I)cc2)c2ccc3ccccc3c2N1 [Compound B48, 5-[4-(2-iodobenzoylamino)phenyl]-1H-naphtho[1,2-b][1,4]diazepine-2,4(3H,5H)-dione]
weight changes compared to the control (placebo) group [1]: comparable
minute volume (MV), dose dependence ([2]; 3, 10, 30 mg/kg oral): tendency of increasing in a dose-dependent manner
peak expiratory flow (PEF), dose dependence ([2]; 3, 10, 30 mg/kg oral): tendency of increasing in a dose-dependent manner
tidal volume (TV), dose dependence ([2]; 3, 10, 30 mg/kg oral): tendency of increasing in a dose-dependent manner
sRaw, dose dependence ([2]; 3, 10, 30 mg/kg oral, Day 13 and Day 26): decreased in a dose-dependent manner
specific airway resistance (sRaw) [2, 5]: 1.711 cmH2O·sec
specific airway resistance (sRaw) ([2]; Day 13, high-dose group 30 mg/kg oral once a day): 1.556 cmH2O·sec
sRaw compared to the control (placebo) group ([2]; Day 13, high-dose group 30 mg/kg oral, P<0.05): significant decrease
specific airway resistance (sRaw) ([2]; Day 13, low-dose group 3 mg/kg oral once a day): 1.755 cmH2O·sec
specific airway resistance (sRaw) [2, 6]: 2.017 cmH2O·sec
respiratory rate (RR), dose dependence ([2]; Day 26, 3, 10, 30 mg/kg oral): tendency of decreasing in a dose-dependent manner
specific airway resistance (sRaw) ([2]; Day 26, high-dose group 30 mg/kg oral once a day): 1.994 cmH2O·sec
specific airway resistance (sRaw) ([2]; Day 26, low-dose group 3 mg/kg oral once a day): 2.105 cmH2O·sec
PEF compared to the control (placebo) group ([2]; all Compound A groups (3, 10, 30 mg/kg)): higher
MV compared to the control (placebo) group ([2]; medium-dose group (10 mg/kg) and high-dose group (30 mg/kg)): higher
number of cough reflexes compared to the control (placebo) group ([3]; 10 mg/kg oral): no significant difference
mean number of cough reflexes ([3]; 10 mg/kg oral): 6.9
number of cough reflexes compared to the control (placebo) group ([3]; high-dose group 30 mg/kg oral): tendency of suppressing the cough reflex
mean number of cough reflexes ([3]; high-dose group 30 mg/kg oral): 3.6
number of cough reflexes compared to the control (placebo) group ([3]; low-dose group 3 mg/kg oral): no significant difference
mean number of cough reflexes ([3]; low-dose group 3 mg/kg oral): 6.0
mean number of macrophages in BALF ([4]; Day 26, 10 mg/kg oral): 20.2 ×10^2 cells/μL
mean number of total WBCs in BALF ([4]; Day 26, 10 mg/kg oral): 30.1 ×10^2 cells/μL
macrophages, dose dependence ([4]; Day 26, 3, 10, 30 mg/kg oral): smaller than that in the control (placebo) group in a dose-dependent manner
neutrophils, dose dependence ([4]; Day 26, 3, 10, 30 mg/kg oral): tendency of decreasing in a dose-dependent manner
number of eosinophils compared to the control (placebo) group ([4]; Day 26, 3, 10, 30 mg/kg oral): no significant difference
number of lymphocytes compared to the control (placebo) group ([4]; Day 26, 3, 10, 30 mg/kg oral): no significant difference
total WBCs, dose dependence ([4]; Day 26, 3, 10, 30 mg/kg oral): smaller than that in the control (placebo) group in a dose-dependent manner
mean number of eosinophils in BALF [4, 7]: 5.6 ×10^2 cells/μL
mean number of lymphocytes in BALF [4, 7]: 1.0 ×10^2 cells/μL
mean number of macrophages in BALF [4, 7]: 12.0 ×10^2 cells/μL
mean number of neutrophils in BALF [4, 7]: 2.3 ×10^2 cells/μL
mean number of total WBCs in BALF [4, 7]: 20.9 ×10^2 cells/μL
number of macrophages compared to the control (placebo) group [4, 7]: significantly suppressed
total number of WBCs compared to the control (placebo) group [4, 7]: significantly suppressed
mean number of eosinophils in BALF [4, 8]: 4.8 ×10^2 cells/μL
mean number of lymphocytes in BALF [4, 8]: 1.1 ×10^2 cells/μL
mean number of macrophages in BALF [4, 8]: 25.0 ×10^2 cells/μL
mean number of neutrophils in BALF [4, 8]: 3.1 ×10^2 cells/μL
mean number of total WBCs in BALF [4, 8]: 33.9 ×10^2 cells/μL
mean number of eosinophils in BALF [4, 9]: 6.1 ×10^2 cells/μL
mean number of lymphocytes in BALF [4, 9]: 1.2 ×10^2 cells/μL
mean number of neutrophils in BALF [4, 9]: 2.5 ×10^2 cells/μL

COc1cc(C(C)C)c(Oc2cnc(N)nc2N)cc1S(N)(=O)=O [Gefapixant, reference compound]
weight changes compared to the control (placebo) group [1]: comparable
effect on the respiratory function ([2]; 10 mg/kg oral): did not have a significant effect
specific airway resistance (sRaw) [2, 5]: 1.675 cmH2O·sec
sRaw compared to the control (placebo) group ([2]; Day 13 and Day 26, 10 mg/kg oral): no significant difference
specific airway resistance (sRaw) [2, 6]: 2.066 cmH2O·sec
number of cough reflexes compared to the control (placebo) group ([3]; 10 mg/kg oral): no significant difference
mean number of cough reflexes ([3]; 10 mg/kg oral): 4.5
effect on the changes in the number of cells in BALF ([4]; 10 mg/kg oral): did not have an effect
mean number of macrophages in BALF ([4]; Day 26, 10 mg/kg oral): 24.4 ×10^2 cells/μL
mean number of total WBCs in BALF ([4]; Day 26, 10 mg/kg oral): 40.0 ×10^2 cells/μL
number of macrophages compared to the control (placebo) group ([4]; Day 26, 10 mg/kg oral): no significant different
total number of WBCs compared to the control (placebo) group ([4]; Day 26, 10 mg/kg oral): no significant different
